In one assay the target is T1, GRK5 (Homo sapiens, UniProt P34947).
T1 construct: purchased Thermo Scientific
Nature of the assay: Lance Kinase Activity Assay, GRK5. The settings on record: biochemical Lance kinase activity assay; class symbols A-F; read-out: GRK5 LANCE Assay (IC-50). Put shortly:
(§1)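 IC50s from sigmoidal dose-response over 0.0025-10 μM compound, with phosphorylated ULight substrate detected by Eu anti-phospho antibody FRET after EDTA quench.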

Another assay concerns the target T2, GRK2 (Homo sapiens, UniProt P25098).
T2 construct: purchased Thermo Scientific
T2 sequence (P25098 1-689): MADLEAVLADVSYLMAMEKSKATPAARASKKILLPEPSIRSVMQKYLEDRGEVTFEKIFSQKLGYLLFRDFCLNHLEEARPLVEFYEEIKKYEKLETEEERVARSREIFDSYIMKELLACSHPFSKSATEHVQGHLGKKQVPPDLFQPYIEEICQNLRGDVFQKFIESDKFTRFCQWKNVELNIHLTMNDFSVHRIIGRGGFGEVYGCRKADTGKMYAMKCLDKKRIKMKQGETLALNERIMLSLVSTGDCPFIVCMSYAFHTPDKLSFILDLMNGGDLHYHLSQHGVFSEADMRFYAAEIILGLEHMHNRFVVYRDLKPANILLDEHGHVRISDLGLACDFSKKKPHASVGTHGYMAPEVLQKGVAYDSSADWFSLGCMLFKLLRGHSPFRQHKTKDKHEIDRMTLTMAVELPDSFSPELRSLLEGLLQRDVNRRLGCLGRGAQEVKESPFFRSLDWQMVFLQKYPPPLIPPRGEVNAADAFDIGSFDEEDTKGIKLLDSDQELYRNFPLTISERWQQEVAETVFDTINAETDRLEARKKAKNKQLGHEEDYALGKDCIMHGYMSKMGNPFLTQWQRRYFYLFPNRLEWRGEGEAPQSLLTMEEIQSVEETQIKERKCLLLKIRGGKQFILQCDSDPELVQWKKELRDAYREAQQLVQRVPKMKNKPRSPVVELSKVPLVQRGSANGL
Nature of the assay: Lance Kinase Activity Assay, GRK2. Conditions: biochemical Lance kinase activity assay; class symbols A-F; read-out: GRK2 LANCE Assay (IC-50). In short, it runs like this: as §1
A general note: TR-FRET usually uses a lanthanide donor and a delayed reading to cut background.

Each structure is given as a SMILES string. Bounds are passed on as bounds.

T1 sequence (P34947 whole entry): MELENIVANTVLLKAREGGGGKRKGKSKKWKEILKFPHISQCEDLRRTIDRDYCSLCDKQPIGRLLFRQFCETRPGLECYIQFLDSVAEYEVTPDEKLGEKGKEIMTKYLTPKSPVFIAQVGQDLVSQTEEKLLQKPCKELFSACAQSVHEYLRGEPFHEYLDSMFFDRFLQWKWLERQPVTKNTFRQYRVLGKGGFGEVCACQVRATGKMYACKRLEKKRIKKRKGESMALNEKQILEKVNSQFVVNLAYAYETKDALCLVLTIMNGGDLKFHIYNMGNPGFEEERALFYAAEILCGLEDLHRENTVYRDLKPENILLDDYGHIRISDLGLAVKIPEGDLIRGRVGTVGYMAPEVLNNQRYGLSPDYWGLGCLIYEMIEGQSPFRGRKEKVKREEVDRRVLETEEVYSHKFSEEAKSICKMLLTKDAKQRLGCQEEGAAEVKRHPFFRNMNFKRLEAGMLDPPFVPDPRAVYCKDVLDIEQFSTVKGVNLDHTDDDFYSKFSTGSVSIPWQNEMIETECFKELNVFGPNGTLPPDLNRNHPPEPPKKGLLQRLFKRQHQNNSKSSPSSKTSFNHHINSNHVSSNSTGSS

Regarding `COc1ccc([C@@H](C)NC(=O)/C=C/c2c[nH]c3ncc(-c4ccc(CN(C)C)cc4)cc23)cc1OC` [Example 184], the IC50 on GRK5 was 50 to 100 nM; at GRK2, more than 10000 nM.

As to `COc1ccc([C@@H](C)NC(=O)/C=C/c2c[nH]c3ncc(-c4cccc(N5CCN(C)CC5)c4)cc23)cc1OC` [Example 185], the values for the IC50 at GRK5 and at GRK2 were not above 50 nM and 1000 to 10000 nM, respectively.

Regarding `COc1ccc([C@@H](C)NC(=O)/C=C/c2c[nH]c3ncc(-c4cccnc4)cc23)cc1OC` [Example 186, (R,E)-N-(1-(3,4-dimethoxyphenyl)ethyl)-3-(5-(pyridin-3-yl)-1H-pyrrolo[2,3-b]pyridin-3-yl)acrylamide], the IC50 at GRK5 was not above 50 nM; at GRK2, 1000 to 10000 nM.

`COc1ccc([C@@H](C)NC(=O)/C=C/c2c[nH]c3ncc(-c4ccc(NS(C)(=O)=O)cc4)cc23)cc1OC` [Example 187]: the IC50 on GRK5 was not above 50 nM; on GRK2 it was 1000 to 10000 nM.

Turning to `COc1ccc([C@@H](C)NC(=O)/C=C/c2c[nH]c3ncc(-c4cccc(OCCCN(C)C)c4)cc23)cc1OC` [Example 188], the figures for the IC50 at GRK5 and at GRK2 were not above 50 nM and 500 to 1000 nM, respectively.

Consider `COc1ccc([C@@H](C)NC(=O)/C=C/c2c[nH]c3ncc(-c4cccc(C(N)=O)c4)cc23)cc1OC` [Example 189], for which the IC50 was not above 50 nM at GRK5 and 1000 to 10000 nM at GRK2.

As to `COc1ccc([C@@H](C)NC(=O)/C=C/c2c[nH]c3ncc(-c4cccc(CN(C)C)c4)cc23)cc1OC` [Example 190], the IC50 at GRK5 was not above 50 nM; at GRK2, 1000 to 10000 nM.

For the compound `CC[S+]([O-])c1cccc(-c2cnc3[nH]cc(/C=C/C(=O)N[C@H](C)c4ccc(OC)c(OC)c4)c3c2)c1` (stereo partly drawn) [Example 191, (E)-N-((R)-1-(3,4-dimethoxyphenyl)ethyl)-3-(5-(3-(ethylsulfinyl)phenyl)-1H-pyrrolo[2,3-b]pyridin-3-yl)acrylamide], the IC50 on GRK5 is not above 50 nM; at GRK2, 1000 to 10000 nM.

As to `COc1ccc([C@@H](C)NC(=O)/C=C/c2c[nH]c3ncc(-c4cccc(CCN(C)C)c4)cc23)cc1OC` [Example 192], the IC50 on GRK5 is not above 50 nM; on GRK2 it was 1000 to 10000 nM.

Turning to `COc1ccc([C@@H](C)NC(=O)/C=C/c2c[nH]c3ncc(-c4cccc(NS(C)(=O)=O)c4)cc23)cc1OC` [Example 193], the IC50 is not above 50 nM at GRK5 and 1000 to 10000 nM on GRK2.

On to `COc1ccc([C@@H](C)NC(=O)/C=C/c2c[nH]c3ncc(-c4ccc(CN5CCOCC5)cc4)cc23)cc1OC` [Example 194], for which the IC50 was not above 50 nM on GRK5 and 1000 to 10000 nM on GRK2.

Take `COc1ccc([C@@H](C)NC(=O)/C=C/c2c[nH]c3ncc(-c4cccc(N(C)C)c4)cc23)cc1OC` [Example 195, (R,E)-N-(1-(3,4-dimethoxyphenyl)ethyl)-3-(5-(3-(dimethylamino)phenyl)-1H-pyrrolo[2,3-b]pyridin-3-yl)acrylamide]: the IC50 was not above 50 nM at GRK5 and more than 10000 nM at GRK2.

In the case of `COc1ccc([C@@H](C)NC(=O)/C=C/c2c[nH]c3ncc(-c4ccc(C5CCN(C)CC5)cc4)cc23)cc1OC` [Example 196, (R,E)-N-(1-(3,4-dimethoxyphenyl)ethyl)-3-(5-(4-(1-methylpiperidin-4-yl)phenyl)-1H-pyrrolo[2,3-b]pyridin-3-yl)acrylamide], the IC50 is not above 50 nM at GRK5 and 100 to 500 nM at GRK2.

Regarding `COc1ccc([C@@H](C)NC(=O)/C=C/c2c[nH]c3ncc(-c4ccc(OCCN(C)C)cc4)cc23)cc1OC` [Example 197, (R,E)-N-(1-(3,4-dimethoxyphenyl)ethyl)-3-(5-(4-(2-(dimethylamino)ethoxy)phenyl)-1H-pyrrolo[2,3-b]pyridin-3-yl)acrylamide], the IC50 was not above 50 nM on GRK5 and 500 to 1000 nM on GRK2.

As for `COc1ccc([C@@H](C)NC(=O)/C=C/c2c[nH]c3ncc(-c4cccc(S(=O)(=O)N(C)C)c4)cc23)cc1OC` [Example 198, (R,E)-N-(1-(3,4-dimethoxyphenyl)ethyl)-3-(5-(3-(N,N-dimethylsulfamoyl)phenyl)-1H-pyrrolo[2,3-b]pyridin-3-yl)acrylamide], the results for the IC50 on GRK5 and on GRK2 were not above 50 nM and 1000 to 10000 nM, respectively.

Turning to `COc1ccc([C@@H](C)NC(=O)/C=C/c2c[nH]c3ncc(-c4cccc(-c5ncc[nH]5)c4)cc23)cc1OC` [Example 199, (R,E)-3-(5-(3-(1H-imidazol-2-yl)phenyl)-1H-pyrrolo[2,3-b]pyridin-3-yl)-N-(1-(3,4-dimethoxyphenyl)ethyl)acrylamide], the values for the IC50 at GRK5 and at GRK2 were not above 50 nM and more than 10000 nM, respectively.

Take `COc1ccc([C@@H](C)NC(=O)/C=C/c2c[nH]c3ncc(-c4ccc(C(N)=O)cc4)cc23)cc1OC` [Example 200, (R,E)-4-(3-(3-((1-(3,4-dimethoxyphenyl)ethyl)amino)-3-oxoprop-1-en-1-yl)-1H-pyrrolo[2,3-b]pyridin-5-yl)benzamide]: the IC50 at GRK5 was not above 50 nM; at GRK2 it was 1000 to 10000 nM.

Consider `COc1ccc([C@@H](C)NC(=O)/C=C/c2c[nH]c3ncc(-c4ccc(F)cc4OC)cc23)cc1OC` [Example 201, (R,E)-N-(1-(3,4-dimethoxyphenyl)ethyl)-3-(5-(4-fluoro-2-methoxyphenyl)-1H-pyrrolo[2,3-b]pyridin-3-yl)acrylamide], for which the IC50 is 100 to 500 nM at GRK5 and more than 10000 nM at GRK2.

For the compound `COc1ccc([C@@H](C)NC(=O)/C=C/c2c[nH]c3ncc(-c4cnn(C)c4C)cc23)cc1OC` [Example 202, (R,E)-N-(1-(3,4-dimethoxyphenyl)ethyl)-3-(5-(1,5-dimethyl-1H-pyrazol-4-yl)-1H-pyrrolo[2,3-b]pyridin-3-yl)acrylamide], the IC50 at GRK5 was not above 50 nM; at GRK2, 1000 to 10000 nM.

Turning to `COc1ccc([C@@H](C)NC(=O)/C=C/c2c[nH]c3ncc(-c4cccc(CNC(C)=O)c4)cc23)cc1OC` [Example 203, (R,E)-3-(5-(3-(acetamidomethyl)phenyl)-1H-pyrrolo[2,3-b]pyridin-3-yl)-N-(1-(3,4-dimethoxyphenyl)ethyl)acrylamide], the IC50 is not above 50 nM at GRK5 and 1000 to 10000 nM at GRK2.

On to `COc1ccc([C@@H](C)NC(=O)/C=C/c2c[nH]c3ncc(-c4cnn(C)c4)cc23)cc1OC` [Example 204, (R,E)-N-(1-(3,4-dimethoxyphenyl)ethyl)-3-(5-(1-methyl-1H-pyrazol-4-yl)-1H-pyrrolo[2,3-b]pyridin-3-yl)acrylamide], for which the IC50 was not above 50 nM at GRK5 and 1000 to 10000 nM at GRK2.

Take `COc1ccc([C@@H](C)NC(=O)/C=C/c2c[nH]c3ncc(-c4ccccc4CN4CCOCC4)cc23)cc1OC` [Example 206, (R,E)-N-(1-(3,4-dimethoxyphenyl)ethyl)-3-(5-(2-(morpholinomethyl)phenyl)-1H-pyrrolo[2,3-b]pyridin-3-yl)acrylamide]: the IC50 at GRK5 is 1000 to 10000 nM; at GRK2 it was more than 10000 nM.

Turning to `COc1ccc([C@@H](C)NC(=O)/C=C/c2c[nH]c3ncc(-c4cncnc4)cc23)cc1OC` [Example 207, (R,E)-N-(1-(3,4-dimethoxyphenyl)ethyl)-3-(5-(pyrimidin-5-yl)-1H-pyrrolo[2,3-b]pyridin-3-yl)acrylamide], the IC50 on GRK5 is 500 to 1000 nM; at GRK2, more than 10000 nM.

Consider `COc1ccc([C@@H](C)NC(=O)/C=C/c2c[nH]c3ncc(-c4cccc(S(N)(=O)=O)c4)cc23)cc1OC` [Example 208, (R,E)-N-(1-(3,4-dimethoxyphenyl)ethyl)-3-(5-(3-sulfamoylphenyl)-1H-pyrrolo[2,3-b]pyridin-3-yl)acrylamide], for which the IC50 at GRK5 was not above 50 nM; at GRK2, 1000 to 10000 nM.

The record behind these values is patent US20240294522A1 (Lead Discovery Center GmbH, priority 2021, published 2024).
